According to patent publication EP1951725B1, “N-SULFAMOYL-N -BENZOPYRANPIPERIDINES AS INHBITORS OF CARBONIC ANHYDRASES” (Abbott Products GmbH, priority 2005, dated 2007):

Legend:
[1] = Acute in vivo food intake test in mice; settings: 24h food intake, male or female C57BI/6 mice, high caloric diet, oral gavage 100 mg/kg/day in two half doses
Method: 2. Acute in vivo food intake test in mice
The studies were carried out in male or female C57BI/6 mice (n=8-12 per group). The mice were kept on an inverted 12/12h light/dark cycle (lights on 22:00). They were allowed food (high caloric diet) and water ad libitum. Food intake and water consumption was measured daily. The test compound of general Formula I was suspended in 1% methylcellulose in water and 2% (v/v) of Poloxamer 188 (Lutrol F68®) and administered by oral gavage at a dose of 100 mg/kg/day. One half of the dose was administered at 7.00-9.00 h; the remaining half of the dose was administered between 15.00-15.30 h.
In the test model described above, the test substances caused a decrease of the animals' 24h food intake to the percentages of food intake when compared to control as given in Table 2 below. Table 2: Influence of test substances on food intake

[2] = target: T1, human carbonic anhydrase isoenzyme II (hCA II) (Homo sapiens, UniProt P00918); assay: biochemical; type: binding; settings: hCA II from erythrocytes 10^-7 M/L, dansylamide 2.25x10^-6, pH 7.4, 60 min preincubation, read at 60 min at 37°C, single measurements
T1 construct: human carbonic anhydrase isoenzyme II from erythrocytes (Sigma-Aldrich); purchased Sigma-Aldrich; host or cells: human erythrocytes (natural source)
Method: 1. In vitro inhibition of human carbonic anhydrase isoenzyme II (hCA II)
The test compounds of general Formula I in 96 well microplates were diluted with aqua bidest by using an automatic pipettor (CyBiWell®). From the different dilution plates, aliquots of 20 µl were transferred to the 96 well black assay plates with a pipetting station (Tecan Genesis®). In a second step, 148 µl of potassium phosphate buffer (20 mM, pH 7.4) was added, and as a third step, 20 µl of enzyme solution (1 µM human carbonic anhydrase isoenzyme II from erythrocytes (Sigma-Aldrich), dissolved in potassium phosphate buffer) incubated for 60 min at room temperature and the fluorescence signal (Tecan Ultra® fluorescence reader; excitation wavelength: 280 nm; emission wavelength: 465 nm) read at the end of the preincubation period (FLU-1). After the preincubation time, 20 µl of aqueous dansylamide solution (1 mM dansylamide (Sigma-Aldrich), dissolved in hydrochloric acid) were added and the fluorescence signal read every 10 min for a period of 60 min at 37°C. For calculation, the fluorescence data of the time point 60 min (FLU-2) were used. The total volume of assay mixture amounted to 208 µl. […] Data were expressed as % inhibition after calculation by the formula: % inhibition = 100((1-(FLU-2_cpd-FLU-2_blank-FLU-1_cpd+FLU-1_blank)/(FLU-2_control-FLU-2_blank-FLU-1_control-FLU-1_blank)) [formula] […]

**Q.** For `NS(=O)(=O)N1CCC2(CC1)CC(=O)c1ccccc1O2` [Example 1], which food intake [1] is on record?
**A.** The food intake was 83 % of control.

**Q.** With `NS(=O)(=O)N1CCC2(CC1)CC(=O)c1cc(Br)ccc1O2` [Example 2] as the molecule, how does the IC50 [2] read?
**A.** Its IC50 is 6.6 µM.
